Active and inactive are the calls of the source. No cut-off for these calls is given here.
T1: Tyrosinase (Agaricus bisporus, UniProt O42713)
T1 sequence (O42713 whole entry): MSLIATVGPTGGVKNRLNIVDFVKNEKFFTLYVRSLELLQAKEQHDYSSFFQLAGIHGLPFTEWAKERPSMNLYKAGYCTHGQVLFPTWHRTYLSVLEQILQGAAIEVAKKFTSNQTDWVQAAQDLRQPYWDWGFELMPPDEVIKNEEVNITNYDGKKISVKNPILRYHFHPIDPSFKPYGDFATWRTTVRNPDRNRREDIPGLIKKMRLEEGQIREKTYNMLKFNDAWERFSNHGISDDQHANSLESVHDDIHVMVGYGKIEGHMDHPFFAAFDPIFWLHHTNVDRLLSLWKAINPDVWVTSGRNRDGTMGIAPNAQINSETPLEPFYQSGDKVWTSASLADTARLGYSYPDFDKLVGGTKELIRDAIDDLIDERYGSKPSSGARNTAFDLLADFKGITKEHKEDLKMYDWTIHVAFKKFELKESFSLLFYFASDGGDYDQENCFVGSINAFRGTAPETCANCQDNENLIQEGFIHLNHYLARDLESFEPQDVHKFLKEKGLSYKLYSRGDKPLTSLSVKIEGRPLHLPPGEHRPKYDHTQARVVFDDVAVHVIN

T2: Tyrosinase (Agaricus bisporus) (UniProt O42713)
T2 sequence (whole entry): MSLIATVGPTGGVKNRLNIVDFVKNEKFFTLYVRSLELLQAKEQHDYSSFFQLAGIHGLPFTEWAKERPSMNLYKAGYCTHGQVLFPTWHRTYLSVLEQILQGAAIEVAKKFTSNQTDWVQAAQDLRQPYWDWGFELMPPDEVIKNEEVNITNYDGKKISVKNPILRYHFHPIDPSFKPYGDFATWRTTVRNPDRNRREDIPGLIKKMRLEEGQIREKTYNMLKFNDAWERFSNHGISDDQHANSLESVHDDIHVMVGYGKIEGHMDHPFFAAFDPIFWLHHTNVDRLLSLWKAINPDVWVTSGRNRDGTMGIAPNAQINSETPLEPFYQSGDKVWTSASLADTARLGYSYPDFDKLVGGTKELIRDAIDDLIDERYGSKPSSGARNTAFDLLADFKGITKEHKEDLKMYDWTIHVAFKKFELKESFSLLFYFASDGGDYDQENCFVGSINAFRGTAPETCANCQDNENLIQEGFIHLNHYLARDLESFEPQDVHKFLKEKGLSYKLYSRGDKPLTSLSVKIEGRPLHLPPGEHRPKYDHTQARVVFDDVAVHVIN


Assays:
B16-F10 = assay: Antiproliferative activity against mouse B16F10 cells incubated for 72 hrs by MTT assay; assay type: functional, cell-based; conditions: B16-F10, 72 h
BALB/3T3 = assay: Antiproliferative activity against mouse BALB/3T3 cells incubated for 72 hrs by SRB assay; assay type: cell-based; conditions: BALB/3T3, 72 h
A549 [1] = assay: Antiproliferative activity against human A549 cells incubated for 72 hrs by SRB assay; assay type: functional, cell-based; conditions: A549, 72 h
MV4-11 = assay: Antiproliferative activity against human MV4-11 cells incubated for 72 hrs by MTT assay; assay type: functional, cell-based; conditions: MV4-11, 72 h
MCF7 [2] = assay: Antiproliferative activity against human MCF7 cells incubated for 72 hrs by SRB assay; assay type: functional, cell-based; conditions: MCF7, 72 h
Tyrosinase = molecular target: T1, Tyrosinase; assay: Inhibition of mushroom tyrosinase using L-dopa as substrate incubated for 30 mins by spectrophotometric method
A549 [3] = assay: Induction of apoptosis in human A549 cells assessed as fold increase in caspase 3/7 activation using Ac-DEVD-ACC as fluorogenic substrate at 5 ug/ml incubated for 72 hrs by fluorescence assay relative to control; assay type: functional
[4] = molecular target: T2, Tyrosinase (Agaricus bisporus); assay: Inhibition of mushroom tyrosinase assessed as reduction in peak intensity at 25 mM using L-dopa as substrate incubated for 30 mins by UV-vis spectra analysis
[5] = Lipophilicity, chromatographic lipophilicity index of the compound in methanol by UPLC-MS/MS; assay type: physicochemical
[6] = molecular target: T2, Tyrosinase (Agaricus bisporus); assay: Ratio of IC50 for kojic acid to IC50 for test compound for inhibition of mushroom tyrosinase using L-dopa as substrate incubated for 30 mins by spectrophotometric method
[7] = molecular target: T2, Tyrosinase (Agaricus bisporus); assay: Ratio of IC50 for ascorbic acid to IC50 for test compound for inhibition of mushroom tyrosinase using L-dopa as substrate incubated for 30 mins by spectrophotometric method
A549 [8] = assay: Potency index, ratio of chlorambucil to ratio of test compound for induction of apoptosis in human A549 cells; assay type: functional
MCF7 [9] = assay: Antiproliferative activity against human MCF7 cells reduction in cell viability relative to control; assay type: functional
MCF7 [10] = assay: Antiproliferative activity against human MCF7 cells reduction in cell viability; assay type: functional, cell-based
[11] = compound: CN1[C@@H]2CC[C@H]1C/C(=N/Nc1nc(-c3ccc(N=[N+]=[N-])cc3)cs1)C2; assay: (§1) Noncompetitive-inhibition of mushroom tyrosinase assessed as Vmax at 0.1 to 0.25 mM using 0.1 to 0.25 mM L-dopa as substrate incubated for 20 mins by Lineweaver-Burk double reciprocal plot analysis; conditions: Agaricus bisporus
[12] = compound: CN1[C@@H]2CC[C@H]1C/C(=N/Nc1nc(-c3ccc(C(F)(F)F)cc3)cs1)C2; assay: as §1; conditions: Agaricus bisporus
[13] = compound: CN1[C@@H]2CC[C@H]1C/C(=N/Nc1nc(-c3ccc(Cl)cc3)cs1)C2; assay: as §1; conditions: Agaricus bisporus
[14] = compound: CN1[C@@H]2CC[C@H]1C/C(=N/Nc1nc(-c3ccc(Cl)cc3Cl)cs1)C2; assay: as §1; conditions: Agaricus bisporus
[15] = compound: Cc1ccc(-c2csc(N/N=C3\C[C@H]4CC[C@@H](C3)N4C)n2)cc1; assay: as §1; conditions: Agaricus bisporus
[16] = compound: CN1[C@@H]2CC[C@H]1C/C(=N/Nc1nc(-c3ccc(F)cc3)cs1)C2; assay: as §1; conditions: Agaricus bisporus
[17] = compound: CN1[C@@H]2CC[C@H]1C/C(=N/Nc1nc(-c3ccc(Cl)c(Cl)c3)cs1)C2; assay: as §1; conditions: Agaricus bisporus
[18] = compound: CN1[C@@H]2CC[C@H]1C/C(=N/Nc1nc(-c3ccc(Br)cc3)cs1)C2; assay: as §1; conditions: Agaricus bisporus
[19] = compound: CN1[C@@H]2CC[C@H]1C/C(=N/Nc1nc(-c3ccc(N=[N+]=[N-])cc3)cs1)C2; assay: (§2) Noncompetitive-inhibition of mushroom tyrosinase assessed as Km at 0.1 to 0.25 mM using 0.1 to 0.25 mM L-dopa as substrate incubated for 20 mins by Lineweaver-Burk double reciprocal plot analysis; conditions: Agaricus bisporus
[20] = compound: CN1[C@@H]2CC[C@H]1C/C(=N/Nc1nc(-c3ccc(Cl)cc3)cs1)C2; assay: as §2; conditions: Agaricus bisporus
[21] = compound: CN1[C@@H]2CC[C@H]1C/C(=N/Nc1nc(-c3ccc(Cl)cc3Cl)cs1)C2; assay: as §2; conditions: Agaricus bisporus
[22] = compound: CN1[C@@H]2CC[C@H]1C/C(=N/Nc1nc(-c3ccc(Cl)c(Cl)c3)cs1)C2; assay: as §2; conditions: Agaricus bisporus
[23] = compound: CN1[C@@H]2CC[C@H]1C/C(=N/Nc1nc(-c3ccc(Br)cc3)cs1)C2; assay: as §2; conditions: Agaricus bisporus

| Molecule | IC50 (B16-F10) [µM] | IC50 (BALB/3T3) [µM] | IC50 (A549 [1]) [µM] | IC50 (MV4-11) [µM] | IC50 (MCF7 [2]) [µM] | IC50 (Tyrosinase) [µM] | logKw [5] | further results |
| --- | --- | --- | --- | --- | --- | --- | --- | --- |
| O=C(O)CCCc1ccc(N(CCCl)CCCl)cc1 [CHLORAMBUCIL] | 12.6 | 69.7 | 72.8 | 8.55 | 69.3 | – | – | – |
| CN1[C@@H]2CC[C@H]1C/C(=N/Nc1nc(-c3ccc(Cl)cc3Cl)cs1)C2 | 5.48 | 8.16 | 7.47 | 6.82 | 7.05 | 3.51 | -3.79 | fold change (FC) (A549 [3]): 3 - 5; inhibition [4]: Active; Ratio IC50 [6]: 22; Ratio IC50 [7]: 120; Ratio (A549 [8]): 3 - 5 |
| CN1[C@@H]2CC[C@H]1CC(=O)C2 | – | – | – | – | – | – | – | inhibition (INH) (MCF7 [9]): 26.98% |
| C/C(=N\Nc1nc(-c2ccc(Cl)c(Cl)c2)cs1)c1ccc(Nc2nc(N)nc(N)n2)cc1 | – | – | – | 3.56 | – | – | – | IC50 (MCF7 [10]): 7.59 µM |
| CN1[C@@H]2CC[C@H]1C/C(=N/Nc1nc(-c3ccc(F)cc3)cs1)C2 | > 15.1 | 19.1 | 42.8 | 13.7 | 19.2 | 123 | -3.058 | Activity (A549 [3]): inactive |
| ClCCN(CCCl)c1ccc(/C=N/Nc2nc(-c3ccc(Br)cc3)cs2)cc1 | – | – | – | 1.27 | – | – | – | – |
| CN1[C@@H]2CC[C@H]1C/C(=N/Nc1nc(-c3ccc(Cl)cc3)cs1)C2 | > 14.4 | 9.2 | 9.48 | 9.37 | 9.08 | 133 | -2.844 | Activity (A549 [3]): inactive |
| Tyrosinase (Agaricus bisporus), O42713 (protein) MSLIATVGPTGGVKNRLNIVDFVKNEKFFTLYVRSLELLQAKEQHDYSSFFQLAGIHGLPFTEWAKERPSMNLYKAGYCTHGQVLFPTWHRTYLSVLEQILQGAAIEVAKKFTSNQTDWVQAAQDLRQPYWDWGFELMPPDEVIKNEEVNITNYDGKKISVKNPILRYHFHPIDPSFKPYGDFATWRTTVRNPDRNRREDIPGLIKKMRLEEGQIREKTYNMLKFNDAWERFSNHGISDDQHANSLESVHDDIHVMVGYGKIEGHMDHPFFAAFDPIFWLHHTNVDRLLSLWKAINPDVWVTSGRNRDGTMGIAPNAQINSETPLEPFYQSGDKVWTSASLADTARLGYSYPDFDKLVGGTKELIRDAIDDLIDERYGSKPSSGARNTAFDLLADFKGITKEHKEDLKMYDWTIHVAFKKFELKESFSLLFYFASDGGDYDQENCFVGSINAFRGTAPETCANCQDNENLIQEGFIHLNHYLARDLESFEPQDVHKFLKEKGLSYKLYSRGDKPLTSLSVKIEGRPLHLPPGEHRPKYDHTQARVVFDDVAVHVIN | – | – | – | – | – | – | – | Vmax [11]: 5.05 abs/min; Vmax [12]: -12.8 abs/min; Vmax [13]: 6.24 abs/min; Vmax [14]: 0.0126 abs/min; Vmax [15]: -16.5 abs/min; Vmax [16]: -1.58 abs/min; Vmax [17]: 5.59 abs/min; Vmax [18]: 2.53 abs/min; Km [19]: 466 µM; Km [20]: 360 µM; Km [21]: 0.278 µM; Km [22]: 180 µM; Km [23]: 184 µM |
